Patent publication US10065954B2, “Substituted imidazo[4,5-c]pyridines as SSAO inhibitors” (Proximagen Limited, priority 2014, dated 2018)
pIC50: −log10 of the molar value.

Experiments:
[1] = molecular target: T1, human ether a go-go related gene (hERG) K+ channel (Homo sapiens, UniProt Q12809); assay: hERG assay, IonWorks patch clamp electrophysiology; type: cell-based; conditions: Chinese Hamster Lung cell line stably expressing hERG; max assay concentration 11 uM
T1 construct: Chinese Hamster Lung cell line stably expressing the full length hERG channel; expressed in transfected cells; host or cells: Chinese Hamster Lung cell line
T1 sequence (Q12809 whole entry): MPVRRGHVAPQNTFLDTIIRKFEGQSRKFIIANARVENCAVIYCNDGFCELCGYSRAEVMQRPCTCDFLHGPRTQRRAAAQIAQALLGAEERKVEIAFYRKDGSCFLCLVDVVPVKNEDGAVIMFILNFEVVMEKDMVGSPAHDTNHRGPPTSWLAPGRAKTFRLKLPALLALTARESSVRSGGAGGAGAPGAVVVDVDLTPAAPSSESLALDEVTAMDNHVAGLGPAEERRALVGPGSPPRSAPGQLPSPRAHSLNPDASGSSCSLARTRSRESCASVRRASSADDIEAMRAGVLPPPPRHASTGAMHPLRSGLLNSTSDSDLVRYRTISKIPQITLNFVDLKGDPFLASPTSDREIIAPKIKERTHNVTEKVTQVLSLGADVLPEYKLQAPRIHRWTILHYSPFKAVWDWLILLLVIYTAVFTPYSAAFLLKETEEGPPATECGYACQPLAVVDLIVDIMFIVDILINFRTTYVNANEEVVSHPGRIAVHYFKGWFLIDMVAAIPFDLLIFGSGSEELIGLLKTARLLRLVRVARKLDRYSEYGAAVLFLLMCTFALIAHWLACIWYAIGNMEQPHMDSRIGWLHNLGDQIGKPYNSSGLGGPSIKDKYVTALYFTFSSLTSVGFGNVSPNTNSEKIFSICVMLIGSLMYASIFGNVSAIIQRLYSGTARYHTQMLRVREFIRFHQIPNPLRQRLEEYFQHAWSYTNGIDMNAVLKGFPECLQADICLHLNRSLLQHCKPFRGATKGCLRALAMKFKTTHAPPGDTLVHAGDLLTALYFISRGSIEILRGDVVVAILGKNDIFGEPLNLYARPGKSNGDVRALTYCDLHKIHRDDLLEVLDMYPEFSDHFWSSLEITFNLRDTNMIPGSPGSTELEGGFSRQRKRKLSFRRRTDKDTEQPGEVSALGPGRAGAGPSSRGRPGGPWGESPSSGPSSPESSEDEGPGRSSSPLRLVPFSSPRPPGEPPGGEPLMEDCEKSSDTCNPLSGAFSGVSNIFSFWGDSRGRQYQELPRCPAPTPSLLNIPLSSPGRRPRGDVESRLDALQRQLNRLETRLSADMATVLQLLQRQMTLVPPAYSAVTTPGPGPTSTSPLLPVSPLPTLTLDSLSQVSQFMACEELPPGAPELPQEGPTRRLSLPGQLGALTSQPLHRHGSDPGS
Protocol: Compounds of the invention were tested for inhibition of the human ether a go-go related gene (hERG) K^+ channel using IonWorks patch clamp electrophysiology. 8 Point concentration-response curves were generated on two occasions using 3-fold serial dilutions from the maximum assay concentration (11 uM). Electrophysiological recordings were made from a Chinese Hamster Lung cell line stably expressing the full length hERG channel. Single cell ion currents were measured in the perforated patch clamp configuration (100 ug/mL amphoterocin) at RT using an IonWorks Quattro instrument. The internal solution contained 140 mM KCl, 1 mM MgCl2, 1 mM EGTA and 20 mM HEPES and was buffered to pH 7.3. The external solution contained 138 mM NaCl, 2.7 mM KCl, 0.9 mM CaCl2, 0.5 mM MgCl2, 8 mM Na2HPO4 and 1.5 mM KH2PO4, and was buffered to pH 7.3. Cells were clamped at a holding potential of […] for 30 s and then stepped to +40 mV for 1 s. This was followed by a hyperpolarising step of 1 s to […] to evoke the hERG tail current. This sequence was repeated 5 times at a frequency of 0.25 Hz. Currents were measured from the tail step at the 5th pulse, and referenced to the holding current. Compounds were incubated for 6-7 min prior to a second measurement of the hERG signal using an identical pulse train. A minimum of 17 cells were required for each pIC50 curve fit. A control compound (quinidine) was used (see Table 13 below).

[2] = molecular target: T2, purified recombinantly expressed human SSAO (Homo sapiens, UniProt Q16853); assay: SSAO enzyme inhibition assay (benzylamine substrate; hydrogen peroxide/HRP-coupled or 14C-aldehyde detection); type: biochemical; conditions: SSAO inhibitory activity; recombinant human SSAO, RT
T2 construct: made in house
T2 sequence (Q16853 1-763): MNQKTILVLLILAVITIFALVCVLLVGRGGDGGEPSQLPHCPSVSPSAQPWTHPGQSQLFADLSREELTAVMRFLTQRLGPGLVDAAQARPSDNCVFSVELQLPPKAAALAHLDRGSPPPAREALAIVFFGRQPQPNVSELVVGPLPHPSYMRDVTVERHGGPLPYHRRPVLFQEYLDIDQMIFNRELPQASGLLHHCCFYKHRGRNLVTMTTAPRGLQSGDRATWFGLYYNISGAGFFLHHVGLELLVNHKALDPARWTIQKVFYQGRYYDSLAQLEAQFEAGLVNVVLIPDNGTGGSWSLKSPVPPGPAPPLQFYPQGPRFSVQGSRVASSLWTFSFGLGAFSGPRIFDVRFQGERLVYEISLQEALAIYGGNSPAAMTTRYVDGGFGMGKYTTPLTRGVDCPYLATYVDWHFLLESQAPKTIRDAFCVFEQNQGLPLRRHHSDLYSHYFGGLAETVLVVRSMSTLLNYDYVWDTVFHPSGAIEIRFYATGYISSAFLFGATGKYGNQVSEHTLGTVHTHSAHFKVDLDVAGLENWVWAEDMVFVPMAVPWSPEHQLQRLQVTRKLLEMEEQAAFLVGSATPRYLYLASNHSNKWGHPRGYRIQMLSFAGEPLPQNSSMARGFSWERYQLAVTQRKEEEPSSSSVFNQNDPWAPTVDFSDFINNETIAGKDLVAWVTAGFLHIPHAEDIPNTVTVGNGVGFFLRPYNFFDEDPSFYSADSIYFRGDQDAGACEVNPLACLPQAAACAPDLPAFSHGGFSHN
Protocol: All primary assays were performed at RT. with purified recombinantly expressed human SSAO. Enzyme was prepared essentially as described in Öhman et al. (Protein Expression and Purification 46 (2006) 321-331). In addition, secondary- and selectivity assays were performed using SSAO prepared from various tissues or purified rat recombinant SSAO. The enzyme activity was assayed with benzylamine as substrate by measuring either benzaldehyde production, using ^14C-labeled substrate, or by utilizing the production of hydrogen peroxide in a horseradish peroxidase (HRP) coupled reaction. Briefly, test compounds were dissolved in dimethyl sulfoxide (DMSO) to a concentration of 10 mM. Dose-response measurements were assayed by either creating 1:10 serial dilutions in DMSO to produce a 7 point curve or by making 1:3 serial dilutions in DMSO to produce 11 point curves. The top concentrations were adjusted depending on the potency of the compounds and subsequent dilution in reaction buffer yielded a final DMSO concentration ≤2%.
In a horseradish peroxidase (HRP) coupled reaction, hydrogen peroxide oxidation of 10-acetyl-3,7-dihydroxyphenoxazine produced resorufin, which is a highly fluorescent compound (Zhout and Panchuk-Voloshina. Analytical Biochemistry 253 (1997) 169-174; Amplex® Red Hydrogen Peroxide/peroxidase Assay kit, Invitrogen A22188). Enzyme and compounds in 50 mM sodium phosphate, pH 7.4 were set to pre-incubate in flat-bottomed microtiter plates for approximately 15 min before initiating the reaction by addition of a mixture of HRP, benzylamine and Amplex reagent. Benzylamine concentration was fixed at a concentration corresponding to the Michaelis constant, determined using standard procedures. Fluorescence intensity was then measured at several time points during 1-2 h, exciting at 544 nm and reading the emission at 590 nm. For the human SSAO assay final concentrations of the reagents in the assay wells were: SSAO enzyme 1 ug/mL, benzylamine 100 uM, Amplex reagent 20 uM, HRP 0.1 U/mL and varying concentrations of test compound. The inhibition was measured as % decrease of the signal compared to a control without inhibitor (only diluted DMSO). The background signal from a sample containing no SSAO enzyme was subtracted from all data points. Data was fitted to a four parameter logistic model and IC50 values were calculated using the GraphPad Prism 4 or XLfit 4 programs.
SSAO activity was assayed using […] benzylamine and analysed by measuring radioactive benzaldehyde. In a white 96-well optiplate (Packard), 20 uL of diluted test compound was pre-incubated at RT with 20 uL SSAO enzyme for approximately 15 min with continuous agitation. All dilutions were made with PBS. The reaction was initiated by adding 20 uL of the benzylamine substrate solution containing Benzylamine hydrochloride (CFA589, GE Healthcare). The plate was incubated for 1 h as above after which the reaction was stopped by acidification (10 uL 1M aq HCl). Then 90 uL Micro Scint-E solution (Perkin-Elmer) was added to each well and the plate was continuously mixed for 15 min. Phase separation occurred instantly and activity was read in a Topcount scintillation counter (Perkin-Elmer). In the final reaction well, the human recombinant SSAO concentration was 10 ug/mL. In order to optimize sensitivity, the substrate concentration was decreased as compared to the HRP coupled assay in order to get a higher fraction of radioactive product. In the human SSAO assay, benzylamine concentration was 40 uM (0.2uCi/mL). Data was analysed as above.

Compound | pIC50 [1] | pIC50 [2]
Cc1ccc(-n2c(-c3ccc(NC4CCOCC4)nc3)nc3ccncc32)cc1 [Compound 10, 5-[3-(4-Methylphenyl)-3H-imidazo[4,5-c]pyridin-2-yl]-N-(oxan-4-yl)pyridin-2-amine] | < 5.00 | > 7.30
Cc1cc(N2CCOCC2)ncc1-c1nc2ccncc2n1-c1ccc(Cl)cn1 [Compound 12, 4-{5-[3-(5-Chloropyridin-2-yl)-3H-imidazo[4,5-c]pyridin-2-yl]-4-methylpyridin-2-yl}morpholine] | < 5.00 | > 7.30
Fc1ccc(-n2c(-c3ccc(NC4CCOCC4)nc3)nc3ccncc32)cc1 [Compound 15, 5-[3-(4-Fluorophenyl)-3H-imidazo[4,5-c]pyridin-2-yl]-N-(oxan-4-yl)pyridin-2-amine] | < 5.00 | > 7.30
Cc1ccc(-n2c(-c3ccc(NC4CC4)nc3)nc3ccncc32)cc1 [Compound 17, N-Cyclopropyl-5-[3-(4-methylphenyl)-3H-imidazo[4,5-c]pyridin-2-yl]pyridin-2-amine] | < 5.00 | > 7.30
Cc1ccc(-n2c(-c3ccc(N4CCCC4)nc3)nc3ccncc32)cn1 [Compound 18, 5-[3-(6-Methylpyridin-3-yl)-3H-imidazo[4,5-c]pyridin-2-yl]-2-(pyrrolidin-1-yl)pyridine] | < 5.00 | > 7.30
Cc1ccc(-n2c(-c3ccc(N4CCC(F)CC4)nc3)nc3ccncc32)cn1 [Compound 19, 2-(4-Fluoropiperidin-1-yl)-5-[3-(6-methylpyridin-3-yl)-3H-imidazo[4,5-c]pyridin-2-yl]pyridine] | < 5.00 | > 7.30
Cc1ccc(-n2c(-c3ccc(NCCN4CCOCC4)nc3)nc3ccncc32)cc1 [Compound 21, 5-[3-(4-Methylphenyl)-3H-imidazo[4,5-c]pyridin-2-yl]-N-[2-(morpholin-4-yl)ethyl]pyridin-2-amine] | < 5.00 | > 7.30
Cc1ccc(-n2c(-c3ccc(NC4CCOCC4)cc3)nc3ccncc32)cn1 [Compound 35, N-{4-[3-(6-Methylpyridin-3-yl)-3H-imidazo[4,5-c]pyridin-2-yl]phenyl}oxan-4-amine] |  | 5.92 to 6.70
Cc1ccc(-n2c(-c3ccc(N4CCCC4)cc3)nc3ccncc32)nc1 [Compound 36, 5-Methyl-2-{2-[4-(pyrrolidin-1-yl)phenyl]-3H-imidazo[4,5-c]pyridin-3-yl}pyridine] |  | 6.70 to 7.30
Cc1ccc(-n2c(-c3ccc(N4CCC(F)CC4)cc3)nc3ccncc32)cn1 [Compound 37, 5-{2-[4-(4-Fluoropiperidin-1-yl)phenyl]-3H-imidazo[4,5-c]pyridin-3-yl}-2-methylpyridine] |  | 6.70 to 7.30
Clc1ccc(-n2c(-c3ccc(Cl)nc3)nc3ccncc32)cc1 [Compound 38, 2-Chloro-5-[3-(4-chlorophenyl)-3H-imidazo[4,5-c]pyridin-2-yl]pyridine] |  | 5.92 to 6.70
Fc1ccc(-n2c(-c3ccc(Cl)nc3)nc3ccncc32)cc1 [Compound 39, 2-Chloro-5-[3-(4-fluorophenyl)-3H-imidazo[4,5-c]pyridin-2-yl]pyridine] |  | 5.92 to 6.70
